Laboratory results as given in paper PMC6812009, “Covalent Aurora A regulation by the metabolic integrator coenzyme A” (Redox Biology, 2019).
Where two headings read alike, the source gives them in different places.

Assays:
[1] = molecular target: T1, Aurora A (active), T288 phosphorylated (Homo sapiens, UniProt O14965); experiment: Lanthascreen Eu Kinase FRET binding assay
T1 construct: For enzyme and DSF assays, full-length human Aurora A and Aurora B and 1–43 TPX2 were produced; made in house; host or cells: E. coli
T1 sequence (O14965 1-403): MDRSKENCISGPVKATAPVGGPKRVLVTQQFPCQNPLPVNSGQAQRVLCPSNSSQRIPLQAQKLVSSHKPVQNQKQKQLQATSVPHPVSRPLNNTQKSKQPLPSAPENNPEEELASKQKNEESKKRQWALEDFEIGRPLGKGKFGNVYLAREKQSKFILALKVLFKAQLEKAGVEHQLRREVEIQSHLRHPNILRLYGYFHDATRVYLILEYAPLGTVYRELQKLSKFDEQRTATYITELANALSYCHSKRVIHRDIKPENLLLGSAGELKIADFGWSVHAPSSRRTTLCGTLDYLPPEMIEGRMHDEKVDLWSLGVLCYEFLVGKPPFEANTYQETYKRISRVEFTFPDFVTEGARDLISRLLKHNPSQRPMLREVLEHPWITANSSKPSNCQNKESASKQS
Procedure: (§1) A Lanthascreen Eu Kinase FRET Binding Assay (Invitrogen) was employed to determine IC50 values for the interaction of Aurora A with CoA, dpCoA, ATP, and ADP. […] Recombinant Aurora A was incubated with Europium-conjugated anti-histidine tag antibody and an Alexa Fluor 647-labelled tracer, which binds to the ATP binding pocket of Aurora A. The close proximity of the anti-histidine (epitope-tag) antibody and the tracer results in a high degree of FRET (fluorescence resonance energy transfer) from the europium donor fluorophore to the Alexa Fluor 647 acceptor fluorophore. ATP-competitive inhibitors, such as CoA, displace the tracer from the active site, causing a loss of FRET signal. Assay set-up was performed as described by the manufacturer. Briefly, the time-resolved fluorescence resonance energy transfer assay (TR-FRET) was performed in black, low volume 384 well plates (Corning). Each well contained 5 nM kinase, 2 nM Eu-anti-His antibody and 10 nM kinase tracer 236 in kinase buffer A (50 mM Hepes pH 7.5, 10 mM MgCl2, 1 mM […], 0.01% (v/v) Brij-35), varying amounts of CoA, dpCoA, ATP, and ADP. The reaction mix was incubated for 1h at room temperature. The signal was measured at 665/620 nm emission ratio using BMG LABTECH plate reader (PHERAstar). All assays were performed using duplicates. The 11-point response curves were generated using GraphPad Prism software from the inhibition data generated.

[2] = molecular target: T2, Aurora A (inactive), unphosphorylated (PP1-treated) (Homo sapiens, UniProt O14965); experiment: Lanthascreen Eu Kinase FRET binding assay
T2 construct: For enzyme and DSF assays, full-length human Aurora A and Aurora B and 1–43 TPX2 were produced; made in house; host or cells: E. coli
T2 sequence (O14965 1-403): T1 sequence (O14965 1-403)
Procedure: as §1

[3] = molecular target: EPH-A4 (Homo sapiens, UniProt P54764); experiment: Kinase profiling screen (radioactive filter-binding assay); assay type: biochemical; conditions: 100 μM compound, 50 μM ATP; read-out: Kinase activity, % of activity in the absence of inhibitor
Chain of EPH-A4 (P54764 20-986): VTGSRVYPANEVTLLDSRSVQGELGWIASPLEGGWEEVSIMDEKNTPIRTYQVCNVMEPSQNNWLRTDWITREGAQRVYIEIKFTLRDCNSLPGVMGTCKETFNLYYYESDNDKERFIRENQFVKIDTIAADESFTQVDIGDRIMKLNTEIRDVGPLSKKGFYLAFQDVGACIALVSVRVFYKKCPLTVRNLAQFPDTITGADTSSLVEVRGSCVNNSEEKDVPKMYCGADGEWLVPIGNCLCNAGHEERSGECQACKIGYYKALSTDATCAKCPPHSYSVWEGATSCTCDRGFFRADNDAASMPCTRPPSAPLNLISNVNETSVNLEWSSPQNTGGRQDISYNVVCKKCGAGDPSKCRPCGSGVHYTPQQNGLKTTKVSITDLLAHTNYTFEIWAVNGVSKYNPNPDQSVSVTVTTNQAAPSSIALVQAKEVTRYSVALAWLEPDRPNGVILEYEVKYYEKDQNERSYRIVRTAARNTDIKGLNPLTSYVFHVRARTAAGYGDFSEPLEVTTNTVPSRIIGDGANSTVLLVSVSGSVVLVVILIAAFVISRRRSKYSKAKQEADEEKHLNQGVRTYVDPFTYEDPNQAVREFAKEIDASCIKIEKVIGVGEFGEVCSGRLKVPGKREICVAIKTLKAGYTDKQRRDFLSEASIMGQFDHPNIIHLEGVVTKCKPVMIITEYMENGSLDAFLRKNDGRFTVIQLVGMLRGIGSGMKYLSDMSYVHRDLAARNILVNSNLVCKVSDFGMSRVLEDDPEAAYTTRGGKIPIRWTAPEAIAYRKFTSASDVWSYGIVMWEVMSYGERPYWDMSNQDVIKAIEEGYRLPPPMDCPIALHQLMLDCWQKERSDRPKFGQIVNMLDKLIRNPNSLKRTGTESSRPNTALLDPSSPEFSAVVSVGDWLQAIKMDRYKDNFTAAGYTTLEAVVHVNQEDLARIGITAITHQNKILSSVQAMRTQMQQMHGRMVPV
Procedure: (§2) Profiling of 117 protein kinases with CoA, dpCoA and ADP was carried out at the International Centre for Protein Kinase Profiling at the University of Dundee. Each compound was tested in vitro, in duplicate, at 100 μM final concentration using recombinant kinases, model substrates and optimal concentrations of ATP. Bacterially expressed full-length His-Aurora A was used to determine the IC50 value for CoA (in the presence or absence of DTT), dpCoA, ADP and desulfo-CoA. The assay was performed in the presence of 5 μM competing ATP. To examine whether the inhibitory effect of CoA on Aurora A is modulated by TPX2, IC50 values for CoA were also generated in the presence and absence of 1 μg TPX2 (residues 1–43) fragment.

[4] = molecular target: T3, BRSK1 (Homo sapiens, UniProt Q8TDC3); experiment: as above; assay type: biochemical; conditions: 100 μM compound, 20 μM ATP; read-out: Kinase activity, % of activity in the absence of inhibitor
T3 sequence (Q8TDC3 1-778): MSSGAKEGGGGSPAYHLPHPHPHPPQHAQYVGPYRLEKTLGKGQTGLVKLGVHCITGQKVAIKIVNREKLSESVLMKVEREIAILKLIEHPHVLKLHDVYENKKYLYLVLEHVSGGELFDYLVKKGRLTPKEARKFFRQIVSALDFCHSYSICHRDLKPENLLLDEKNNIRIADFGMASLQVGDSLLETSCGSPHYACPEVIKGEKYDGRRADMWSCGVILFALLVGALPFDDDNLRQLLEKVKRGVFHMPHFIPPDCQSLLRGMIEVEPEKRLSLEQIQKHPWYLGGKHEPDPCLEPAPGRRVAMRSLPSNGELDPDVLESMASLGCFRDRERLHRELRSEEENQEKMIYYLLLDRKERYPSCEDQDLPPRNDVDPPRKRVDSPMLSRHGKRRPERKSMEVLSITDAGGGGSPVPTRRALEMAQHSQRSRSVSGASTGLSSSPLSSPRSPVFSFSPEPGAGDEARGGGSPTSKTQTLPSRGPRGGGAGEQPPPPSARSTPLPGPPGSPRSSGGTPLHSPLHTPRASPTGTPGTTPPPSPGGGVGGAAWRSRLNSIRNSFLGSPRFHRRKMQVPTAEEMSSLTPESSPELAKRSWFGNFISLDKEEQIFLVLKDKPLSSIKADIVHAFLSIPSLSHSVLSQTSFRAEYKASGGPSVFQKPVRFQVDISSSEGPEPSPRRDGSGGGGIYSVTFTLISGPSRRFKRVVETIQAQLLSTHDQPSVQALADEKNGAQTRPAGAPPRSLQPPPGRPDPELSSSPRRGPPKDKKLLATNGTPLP
Procedure: as §2

[5] = molecular target: MARK2 (Homo sapiens, UniProt Q7KZI7); experiment: as above; assay type: biochemical; conditions: 100 μM compound, 20 μM ATP; read-out: Kinase activity, % of activity in the absence of inhibitor
Chain of MARK2 (Q7KZI7 whole entry): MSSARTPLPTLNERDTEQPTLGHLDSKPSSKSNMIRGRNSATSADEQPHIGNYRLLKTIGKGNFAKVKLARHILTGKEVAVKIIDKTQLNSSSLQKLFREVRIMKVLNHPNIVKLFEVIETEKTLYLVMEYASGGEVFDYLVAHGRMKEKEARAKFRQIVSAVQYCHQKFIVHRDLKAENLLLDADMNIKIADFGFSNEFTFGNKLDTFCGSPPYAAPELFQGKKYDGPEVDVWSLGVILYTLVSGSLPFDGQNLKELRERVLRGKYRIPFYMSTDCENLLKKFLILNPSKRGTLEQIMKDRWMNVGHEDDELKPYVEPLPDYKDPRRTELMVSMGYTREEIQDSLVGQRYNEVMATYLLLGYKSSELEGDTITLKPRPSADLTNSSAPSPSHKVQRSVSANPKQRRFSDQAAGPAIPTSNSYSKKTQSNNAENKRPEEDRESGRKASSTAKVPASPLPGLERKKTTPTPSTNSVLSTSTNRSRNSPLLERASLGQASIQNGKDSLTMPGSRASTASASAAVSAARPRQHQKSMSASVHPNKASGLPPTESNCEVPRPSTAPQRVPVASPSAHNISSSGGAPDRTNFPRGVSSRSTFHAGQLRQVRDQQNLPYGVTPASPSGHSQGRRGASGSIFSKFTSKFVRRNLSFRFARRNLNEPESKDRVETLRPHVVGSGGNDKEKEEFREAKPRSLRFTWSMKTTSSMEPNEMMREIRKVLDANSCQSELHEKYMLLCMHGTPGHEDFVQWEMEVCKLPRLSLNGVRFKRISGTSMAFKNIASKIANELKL
Procedure: as §2

[6] = molecular target: RSK1 (Homo sapiens, UniProt Q15418); experiment: as above; assay type: biochemical; conditions: 100 μM compound, 50 μM ATP; read-out: Kinase activity, % of activity in the absence of inhibitor
Chain of RSK1 (Q15418 whole entry): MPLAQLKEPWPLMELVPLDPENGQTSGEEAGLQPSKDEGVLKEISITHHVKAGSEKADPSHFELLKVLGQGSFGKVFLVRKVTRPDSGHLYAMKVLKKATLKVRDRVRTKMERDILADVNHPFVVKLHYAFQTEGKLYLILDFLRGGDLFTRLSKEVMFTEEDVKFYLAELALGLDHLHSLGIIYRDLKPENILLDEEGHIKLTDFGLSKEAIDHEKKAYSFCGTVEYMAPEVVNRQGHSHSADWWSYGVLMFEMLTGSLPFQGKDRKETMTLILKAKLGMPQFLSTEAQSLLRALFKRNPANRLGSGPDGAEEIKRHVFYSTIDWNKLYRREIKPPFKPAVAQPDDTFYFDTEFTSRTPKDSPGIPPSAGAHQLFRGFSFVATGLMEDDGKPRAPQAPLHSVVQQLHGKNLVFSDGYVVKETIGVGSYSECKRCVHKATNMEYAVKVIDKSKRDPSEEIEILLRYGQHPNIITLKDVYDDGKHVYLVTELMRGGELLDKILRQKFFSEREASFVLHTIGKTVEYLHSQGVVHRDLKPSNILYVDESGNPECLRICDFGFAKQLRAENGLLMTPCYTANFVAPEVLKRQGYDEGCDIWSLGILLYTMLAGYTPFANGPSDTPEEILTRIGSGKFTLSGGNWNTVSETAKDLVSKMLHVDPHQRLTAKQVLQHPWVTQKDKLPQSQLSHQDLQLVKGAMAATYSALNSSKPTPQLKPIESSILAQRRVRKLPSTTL
Procedure: as §2

[7] = molecular target: PAK6 (Homo sapiens, UniProt Q9NQU5); experiment: as above; assay type: biochemical; conditions: 100 μM compound, 20 μM ATP; read-out: Kinase activity, % of activity in the absence of inhibitor
Chain of PAK6 (Q9NQU5 whole entry): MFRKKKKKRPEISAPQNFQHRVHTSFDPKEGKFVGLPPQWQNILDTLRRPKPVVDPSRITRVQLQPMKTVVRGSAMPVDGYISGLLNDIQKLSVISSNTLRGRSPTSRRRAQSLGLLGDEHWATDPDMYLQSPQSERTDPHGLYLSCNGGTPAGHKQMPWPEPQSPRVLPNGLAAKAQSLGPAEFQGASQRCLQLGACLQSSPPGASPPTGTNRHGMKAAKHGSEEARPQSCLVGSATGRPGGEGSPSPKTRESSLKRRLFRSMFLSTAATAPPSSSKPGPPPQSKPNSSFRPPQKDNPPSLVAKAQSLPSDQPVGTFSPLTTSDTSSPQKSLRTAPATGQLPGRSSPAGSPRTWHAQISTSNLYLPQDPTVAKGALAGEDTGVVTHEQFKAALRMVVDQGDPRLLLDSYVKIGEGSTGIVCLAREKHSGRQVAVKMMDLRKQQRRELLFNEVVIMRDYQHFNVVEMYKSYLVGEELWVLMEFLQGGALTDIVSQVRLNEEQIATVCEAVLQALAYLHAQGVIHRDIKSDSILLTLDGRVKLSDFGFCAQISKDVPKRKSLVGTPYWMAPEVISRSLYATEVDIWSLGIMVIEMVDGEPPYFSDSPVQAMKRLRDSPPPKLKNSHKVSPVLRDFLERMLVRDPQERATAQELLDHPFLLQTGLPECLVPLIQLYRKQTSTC
Procedure: as §2

[8] = T288 phosphorylated Aurora A, read-out: Aurora A (active) IC50 (μM), binding assay

SMILES	IC50 [1, 8] [nM]	IC50 [2] [µM]	activity at 100 µM [3] [%]	activity at 100 µM [4] [%]	activity at 100 µM [5] [%]	activity at 100 µM [6] [%]	activity at 100 µM [7] [%]	IC50 ([1]; read-out: IC50 for the interaction of active Aurora A) [nM]
CC(C)(COP(=O)(O)OP(=O)(O)OC[C@H]1O[C@@H](n2cnc3c(N)ncnc32)[C@H](O)[C@@H]1OP(=O)(O)O)[C@@H](O)C(=O)NCCC(=O)NCCS [CoA, Coenzyme A]	0.01	0.28	115	110	93.1	97.2	98.4	–
CC(C)(COP(=O)(O)OP(=O)(O)OCC1OC(n2cnc3c(N)ncnc32)C(O)C1O)C(O)C(=O)NCCC(=O)NCCS (stereo not shown) [dpCoA, dephospho-CoA]	0.3	> 100	75.6	96.4	81.5	98.9	101	–
Nc1ncnc2c1ncn2C1OC(COP(=O)(O)OP(=O)(O)O)C(O)C1O (stereo not shown) [ADP]	170	1.3	32.5	42.8	25	58.5	78.4	~177000
